From US10941157B2, “Pesticidal compositions and uses thereof” (Gilead Apollo, LLC, priority 2015, dated 2021)
In brackets after ≈: the same amount, converted by molar mass. Like-named read-outs stand apart in the source and are kept apart here.

Key:
Type in all cases: cell-based
[1] = tested on: Fusarium moniliforme (Fm); test: In vitro pathogen growth inhibition assay, Fm; conditions: Fusarium verticillioides
Summary of the method: (§1)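 Value reported is the compound concentration reaching ≥90% growth inhibition, from OD readings at 24 and 48 h after blank subtraction, confirmed visually. Inoculum was spores diluted in 17% V8 medium, except Rs, using 1.5 mm mycelial plugs in ¼ PDB; actual compound concentration corrected via OD600.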

[2] = tested on: Fusarium virguliforme (Fv); test: In vitro pathogen growth inhibition assay, Fv
Summary of the method: (§2)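 Spores in 17% V8 liquid medium, or 1.5 mm Rs mycelial plugs in ¼ PDB, incubated with compound; final concentration checked by OD600 for precipitation. OD readings at 24 and 48 h, blank-subtracted, plus visual ratings; value is concentration giving ≥90% growth inhibition.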

[3] = tested on: Collectotrichum graminicola (Cg); test: In vitro pathogen growth inhibition assay, Cg; conditions: 48 h
Summary of the method: as §1

[4] = tested on: Septoria tritici (St); test: In vitro pathogen growth inhibition assay, St; conditions: Zymoseptoria tritici, 48 h
Summary of the method: as §1

[5] = tested on: Rhizoctonia solani (Rs); test: In vitro pathogen growth inhibition assay, Rs (mycelial plugs); conditions: Rhizoctonia solani, 48 h, mycelial plugs
Summary of the method: as §2

[6] = tested on: Diplodia maydis (Dm); test: In vitro pathogen growth inhibition assay, Dm; conditions: Stenocarpella maydis, 48 h
Summary of the method: as §2

[7] = tested on: Phytophthora capsici (Pc); test: In vitro pathogen growth inhibition assay, Pc; conditions: 48 h
Summary of the method: as §2

[8] = tested on: Botrtyis cinerea (Bc); test: In vitro pathogen growth inhibition assay, Bc; conditions: 48 h
Summary of the method: as §1

[9] = ≥90% inhibition, 48 hours vs 2% DMSO control, read-out: Compound Concentration (ppm) sufficient for ≥90% inhibition of growth, Fm
[10] = ≥90% inhibition, 48 hours vs 2% DMSO control, read-out: Compound Concentration (ppm) sufficient for ≥90% inhibition of growth, Fv
[11] = ≥90% inhibition, 48 hours vs 2% DMSO control, read-out: Compound Concentration (ppm) sufficient for ≥90% inhibition of growth, Cg
[12] = ≥90% inhibition, 48 hours vs 2% DMSO control, read-out: Compound Concentration (ppm) sufficient for ≥90% inhibition of growth, St
[13] = ≥90% inhibition, 48 hours vs 2% DMSO control, read-out: Compound Concentration (ppm) sufficient for ≥90% inhibition of growth, Rs
[14] = ≥90% inhibition, 48 hours vs 2% DMSO control, read-out: Compound Concentration (ppm) sufficient for ≥90% inhibition of growth, Dm
[15] = ≥90% inhibition, 48 hours vs 2% DMSO control, read-out: Compound Concentration (ppm) sufficient for ≥90% inhibition of growth, Pc
[16] = ≥90% inhibition, 48 hours vs 2% DMSO control, read-out: Compound Concentration (ppm) sufficient for ≥90% inhibition of growth, Bc
[17] = ≥90% growth inhibition, 48 hours, vs 2% DMSO control, read-out: Compound Concentration (ppm) sufficient for ≥90% inhibition of Fm
[18] = ≥90% growth inhibition, 48 hours, vs 2% DMSO control, read-out: Compound Concentration (ppm) sufficient for ≥90% inhibition of Fv
[19] = ≥90% growth inhibition, 48 hours, vs 2% DMSO control, read-out: Compound Concentration (ppm) sufficient for ≥90% inhibition of Cg
[20] = ≥90% growth inhibition, 48 hours, vs 2% DMSO control, read-out: Compound Concentration (ppm) sufficient for ≥90% inhibition of St
[21] = ≥90% growth inhibition, 48 hours, vs 2% DMSO control, read-out: Compound Concentration (ppm) sufficient for ≥90% inhibition of Rs
[22] = ≥90% growth inhibition, 48 hours, vs 2% DMSO control, read-out: Compound Concentration (ppm) sufficient for ≥90% inhibition of Dm
[23] = ≥90% growth inhibition, 48 hours, vs 2% DMSO control, read-out: Compound Concentration (ppm) sufficient for ≥90% inhibition of Pc
[24] = ≥90% growth inhibition, 48 hours, vs 2% DMSO control, read-out: Compound Concentration (ppm) sufficient for ≥90% inhibition of Bc

SMILES	IC90 [1, 9]	IC90 [2, 10]	IC90 [3, 11]	IC90 [4, 12]	IC90 [5, 13]	IC90 [6, 14]	IC90 [7, 15]	IC90 [8, 16]	IC90 [1, 17]	IC90 [2, 18]	IC90 [3, 19]	IC90 [4, 20]	IC90 [5, 21]	IC90 [6, 22]	IC90 [7, 23]	IC90 [8, 24]
COc1ccc(F)cc1[C@H](Cn1c(=O)n(C(C)(C)C(=O)N2CCCCC2)c(=O)c2c(C)c(-c3ncco3)sc21)OC(C)C [Compound I-016]	0.08 mg/L (≈ 0.131 µM)	0.4 mg/L (≈ 0.653 µM)	2 mg/L (≈ 3.26 µM)	> 10 mg/L	0.4 mg/L (≈ 0.653 µM)	0.4 mg/L (≈ 0.653 µM)	> 50 mg/L	0.4 mg/L (≈ 0.653 µM)	–	–	–	–	–	–	–	–
COc1ccc(F)cc1[C@H](Cn1c(=O)n([C@@H](C)C(=O)NC2CCC2)c(=O)c2c(C)c(-n3nccn3)sc21)OCCO [Compound I-091]	0.08 mg/L (≈ 0.136 µM)	0.4 mg/L (≈ 0.682 µM)	≥ 2 mg/L	> 50 mg/L	2 mg/L (≈ 3.41 µM)	2 mg/L (≈ 3.41 µM)	> 50 mg/L	0.4 mg/L (≈ 0.682 µM)	–	–	–	–	–	–	–	–
COc1ccc(F)cc1[C@H](Cn1c(=O)n(C(C)C(=O)N2CCCC2)c(=O)c2c(C)c(-n3nccn3)sc21)OC(C)C (some centres unmarked) [Compound I-056]	0.08 mg/L (≈ 0.137 µM)	0.24 mg/L (≈ 0.41 µM)	0.08 mg/L (≈ 0.137 µM)	26 mg/L (≈ 44.5 µM)	0.24 mg/L (≈ 0.41 µM)	0.08 mg/L (≈ 0.137 µM)	30 mg/L (≈ 51.3 µM)	0.4 mg/L (≈ 0.684 µM)	–	–	–	–	–	–	–	–
CCOC(=O)c1sc2c(c1C)c(=O)n([C@H](C)C(=O)N1CCCC1)c(=O)n2C[C@H](OCCC#N)c1cc(F)ccc1OC [Compound I-226]	–	–	–	–	–	–	–	–	0.08 mg/L (≈ 0.133 µM)	2 mg/L (≈ 3.33 µM)	2 mg/L (≈ 3.33 µM)	> 50 mg/L	0.08 mg/L (≈ 0.133 µM)	≥ 2 mg/L	> 50 mg/L	2 mg/L (≈ 3.33 µM)
COc1ccccc1[C@H](Cn1c(=O)n(C(C)(C)C(=O)NC2CCCCC2)c(=O)c2c(C)c(-n3nccn3)sc21)OC1CCOCC1 [Compound I-043]	0.08 mg/L (≈ 0.123 µM)	2 mg/L (≈ 3.07 µM)	> 2 mg/L	> 10 mg/L	0.4 mg/L (≈ 0.615 µM)	0.4 mg/L (≈ 0.615 µM)	> 10 mg/L	0.4 mg/L (≈ 0.615 µM)	–	–	–	–	–	–	–	–
COc1ccccc1[C@H](Cn1c(=O)n(C(C)(C)C(=O)NCC(C)C)c(=O)c2c(C)c(-n3nccn3)sc21)OC1CCOCC1 [Compound I-041]	0.08 mg/L (≈ 0.128 µM)	2 mg/L (≈ 3.2 µM)	2 mg/L (≈ 3.2 µM)	> 10 mg/L	0.08 mg/L (≈ 0.128 µM)	≥ 2 mg/L	> 50 mg/L	0.4 mg/L (≈ 0.64 µM)	–	–	–	–	–	–	–	–
CCNC(=O)C(C)(C)n1c(=O)c2c(C)c(-n3cccn3)sc2n(C[C@H](OCCC#N)c2cc(F)ccc2OC)c1=O [Compound I-235]	–	–	–	–	–	–	–	–	0.4 mg/L (≈ 0.687 µM)	2 mg/L (≈ 3.43 µM)	2 mg/L (≈ 3.43 µM)	> 50 mg/L	2 mg/L (≈ 3.43 µM)	≥ 2 mg/L	> 50 mg/L	2 mg/L (≈ 3.43 µM)
COc1ccc(F)cc1[C@H](Cn1c(=O)n([C@@H](C)C(=O)N2CCCC2)c(=O)c2c(C)c(-n3nccn3)sc21)OC(C)C [Compound I-058]	0.08 mg/L (≈ 0.137 µM)	0.08 mg/L (≈ 0.137 µM)	0.08 mg/L (≈ 0.137 µM)	> 50 mg/L	0.4 mg/L (≈ 0.684 µM)	0.08 mg/L (≈ 0.137 µM)	≥ 10 mg/L	0.4 mg/L (≈ 0.684 µM)	–	–	–	–	–	–	–	–
COc1ccc(F)cc1[C@H](Cn1c(=O)n(CC(=O)N2CCCC2)c(=O)c2c(C)c(-n3nccn3)sc21)OC(C)C [Compound I-059]	0.08 mg/L (≈ 0.14 µM)	≥ 0.08 mg/L	0.4 mg/L (≈ 0.701 µM)	10 mg/L (≈ 17.5 µM)	0.4 mg/L (≈ 0.701 µM)	0.4 mg/L (≈ 0.701 µM)	> 50 mg/L	0.08 mg/L (≈ 0.14 µM)	–	–	–	–	–	–	–	–
COc1ccc(F)cc1[C@H](Cn1c(=O)n(C(C)(C)C(=O)NC(C)C)c(=O)c2c(C)c(-n3cccn3)sc21)OC1CCC(=O)CC1 [Compound I-048]	0.08 mg/L (≈ 0.125 µM)	2 mg/L (≈ 3.13 µM)	10 mg/L (≈ 15.6 µM)	> 50 mg/L	2 mg/L (≈ 3.13 µM)	2 mg/L (≈ 3.13 µM)	> 50 mg/L	0.4 mg/L (≈ 0.625 µM)	–	–	–	–	–	–	–	–
